Values quoted from earlier work in patent US20100255088A1 (priority 2009, published 2010).
Where two headings read alike, the source gives them in different places.

Columns and labels:
[1] = not given; remark: listed apart in the source
platelet aggregation = details: aspirin resistance group of patients
[2] = test system: isolated pig retinal artery; details: through the NO system and prostacycline secretion
H+/K+ ATPase = H+/K+ ATPase (Homo sapiens, UniProt P20648); details: Life Sciences 66(8), 2000, 663-673
[3] = test system: yeast and primitives animals; details: high resveratrol levels artificially maintained

Chain of H+/K+ ATPase (P20648 whole entry): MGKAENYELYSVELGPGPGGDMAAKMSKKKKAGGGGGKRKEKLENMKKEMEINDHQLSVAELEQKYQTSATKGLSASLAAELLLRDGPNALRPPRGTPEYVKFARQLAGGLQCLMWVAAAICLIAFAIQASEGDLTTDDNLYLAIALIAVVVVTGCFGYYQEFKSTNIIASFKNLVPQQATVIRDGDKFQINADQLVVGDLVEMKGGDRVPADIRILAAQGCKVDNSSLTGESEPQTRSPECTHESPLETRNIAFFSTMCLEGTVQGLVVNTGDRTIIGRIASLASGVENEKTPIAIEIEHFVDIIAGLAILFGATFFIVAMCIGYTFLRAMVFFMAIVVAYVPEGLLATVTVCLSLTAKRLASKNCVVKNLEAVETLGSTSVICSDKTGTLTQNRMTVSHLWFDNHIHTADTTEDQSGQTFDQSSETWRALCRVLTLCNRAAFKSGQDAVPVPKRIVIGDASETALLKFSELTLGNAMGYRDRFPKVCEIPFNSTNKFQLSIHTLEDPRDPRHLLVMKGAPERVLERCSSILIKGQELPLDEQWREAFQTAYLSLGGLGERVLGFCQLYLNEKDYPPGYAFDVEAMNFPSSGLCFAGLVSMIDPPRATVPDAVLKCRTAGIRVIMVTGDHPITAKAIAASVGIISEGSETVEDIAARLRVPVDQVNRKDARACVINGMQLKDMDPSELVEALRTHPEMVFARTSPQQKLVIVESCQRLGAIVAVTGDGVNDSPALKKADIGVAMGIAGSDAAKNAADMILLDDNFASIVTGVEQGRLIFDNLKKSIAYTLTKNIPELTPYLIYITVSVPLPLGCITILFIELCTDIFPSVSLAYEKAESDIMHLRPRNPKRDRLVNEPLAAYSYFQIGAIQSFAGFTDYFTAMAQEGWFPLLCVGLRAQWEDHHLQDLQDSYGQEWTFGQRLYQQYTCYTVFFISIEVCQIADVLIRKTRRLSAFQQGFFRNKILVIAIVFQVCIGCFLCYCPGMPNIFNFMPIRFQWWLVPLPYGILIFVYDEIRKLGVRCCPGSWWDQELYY
Chain of H+/K+ ATPase (P51164 whole entry partner): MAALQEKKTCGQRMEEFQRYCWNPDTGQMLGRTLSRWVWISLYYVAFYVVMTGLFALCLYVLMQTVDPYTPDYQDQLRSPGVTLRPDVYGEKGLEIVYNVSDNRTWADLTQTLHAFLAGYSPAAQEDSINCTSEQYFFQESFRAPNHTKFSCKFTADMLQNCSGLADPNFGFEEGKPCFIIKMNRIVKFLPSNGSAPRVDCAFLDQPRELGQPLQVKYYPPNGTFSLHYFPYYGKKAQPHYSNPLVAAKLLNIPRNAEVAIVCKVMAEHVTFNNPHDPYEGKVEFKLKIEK

## CC(=O)Oc1ccccc1C(=O)O [aspirin, acetyl salicylic acid]
other
  water solubility: not water-soluble
[1]; at least 325 mg daily for ten years
  patients with reduced mortality: 50%
[1]; full dose aspirin for ten years and above
  incidence of various human carcinomas: halved
[1]; higher doses for ten years
  patients with reduced mortality: 75%

## Oc1ccc(C=Cc2cc(O)cc(O)c2)cc1 [resveratrol]
Platelet aggregation
  platelet aggregation inhibition: optimal platelet aggregation inhibition
[2]
  vasodilating effect: strong vasodilating effect
H+/K+ ATPase
  hydrochloric acid production: reducing significantly the hydrochloric acid production
[3]
  life span: doubling the life span
